Assay [1] deals with T1, human PPARγ ligand-binding site (Homo sapiens, UniProt P37231).
T1 construct: expressed in transfected cells; host or cells: CV-1 cells (African green monkey kidney)
T1 sequence (P37231 204-505): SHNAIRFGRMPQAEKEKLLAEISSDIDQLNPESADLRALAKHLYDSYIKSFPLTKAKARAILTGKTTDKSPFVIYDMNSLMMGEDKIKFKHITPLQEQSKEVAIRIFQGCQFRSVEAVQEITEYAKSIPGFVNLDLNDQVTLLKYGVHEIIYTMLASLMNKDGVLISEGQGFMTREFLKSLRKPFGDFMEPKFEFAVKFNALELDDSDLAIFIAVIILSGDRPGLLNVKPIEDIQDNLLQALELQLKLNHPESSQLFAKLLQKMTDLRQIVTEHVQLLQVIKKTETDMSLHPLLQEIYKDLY
In words: PPARγ ligand activity, GAL4-hPPARγ luciferase reporter assay in CV-1 cells. As to conditions: for PPARγ ligand activity: relative to non-treatment control (DMSO) = 100, average ± standard error, n=4. It is filed as cell-based. How it is done:
(§1) CV-1 cells (cultured cells derived from kidneys of male African green monkeys) were implanted on 24-well culture plates so as to be […]/well and cultured at 37° C. in 5% CO2 for 24 hours. As a medium, DMEM (Dulbecco's Modified Eagle Medium; manufactured by GIBCO) containing 10% FBS (fetal bovine serum) and a 10 mg/mL penicillin streptomycin solution was used. Using the Lipofectamine system (trade name; manufactured by Invitrogen Corporation), pM-hPPARγ and p4×UASg-tk-luc were transfected. The above-noted pM-hPPARγ was a chimeric protein-expression plasmid binding GAL4 gene (amino acid sequence 1-147) and human PPARγ ligand-binding site gene (amino acid sequence 204-505), whereas the above-noted p4×UASg-tk-luc was a reporter plasmid containing four copies of a responsive element (UAS) of GAL 4 upstream of a luciferase gene. About 24 hours after the transfection, samples of bergamottin at respective concentrations (0.1, 1.0, 10, 50 and 100 μM) were added to the above-described media, followed by 24 hour incubation. The above-noted samples were prepared by dissolving bergamottin in dimethyl sulfoxide (DMSO). Instead of the above-noted sample, DMSO was used for non-treated control media. After the incubation, measurement was made using a Dual-Luciferase Reporter Gene Assay system (trade name; manufactured by Promega Corporation).
(§2) Similarly to the measurement group, as a control group, pM (a plasmid from which PPARγ ligand-binding site gene was removed) was used for measurement instead of pM-hPPARγ. For each sample, the ratio between average luminescence intensities of the measurement group and the control group (n=4) (measurement group/control group) was calculated, and an activity relative to the non-treatment control was determined as the PPARγ ligand activity of the sample.

A further assay deals with T2, PPARα (Homo sapiens, UniProt Q07869).
T2 construct: expressed in transfected cells; host or cells: CV-1 cells (African green monkey kidney)
T2 sequence (Q07869 1-468): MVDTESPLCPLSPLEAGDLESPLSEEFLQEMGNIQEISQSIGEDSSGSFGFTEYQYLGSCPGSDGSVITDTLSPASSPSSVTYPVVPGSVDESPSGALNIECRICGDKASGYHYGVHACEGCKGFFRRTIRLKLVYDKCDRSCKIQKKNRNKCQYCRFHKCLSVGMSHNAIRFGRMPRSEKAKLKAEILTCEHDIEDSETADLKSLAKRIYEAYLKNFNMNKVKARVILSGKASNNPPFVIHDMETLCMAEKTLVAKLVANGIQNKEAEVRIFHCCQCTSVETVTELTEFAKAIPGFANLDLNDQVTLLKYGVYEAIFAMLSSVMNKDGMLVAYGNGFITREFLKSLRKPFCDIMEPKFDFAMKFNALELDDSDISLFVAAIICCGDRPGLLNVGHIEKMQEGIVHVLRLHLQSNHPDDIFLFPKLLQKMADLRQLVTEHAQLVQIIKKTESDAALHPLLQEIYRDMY
In words: PPARα ligand activity, GAL4-hPPARα luciferase reporter assay in CV-1 cells. It is filed as cell-based. The following applies: relative to non-treatment control (DMSO) = 100, average ± standard error. How it is done:
as §1, §2
The PPARα ligand activity of bergamottin was measured similarly to Example 1 except that pM-hPPARα was used instead of pM-hPPARγ and the bergamottin concentrations were set to 0.1, 1.0, 5.0, 10, 20, 50 and 80 μM.
In general terms: Reporter assays use an easily measured gene product as a stand-in for the process of interest.

On to `CC(C)=CCC/C(C)=C/COc1c2ccoc2cc2oc(=O)ccc12` [Bergamottin, bergamottin], for which the PPARγ ligand activity in assay [1] (0.1 μM) amounted to 90 ± 5.7; in assay [1] (1.0 μM), 132 ± 12.0; in assay [1] (10 μM), 388 ± 41.4; in assay [1] (50 μM), 961 ± 72.1; in assay [1] (100 μM), 1032 ± 248.3. In addition, the “PPARγ activity level compared with catechin” value in assay [1] (no catechin data shown) is recorded as “higher than that of catechin”. Further, the PPARα ligand activity was found to be 95 ± 12.9 on PPARα (0.1 μM); 92 ± 8.0 on PPARα (1.0 μM); 118 ± 6.1 at PPARα (5.0 μM); 194 ± 15.0 at PPARα (10 μM); 350 ± 25.5 at PPARα (20 μM); 622 ± 79.6 on PPARα (50 μM). Also, the PPARα ligand activity on PPARα (80 μM) was determined as 558 ± 39.4.

Source of the values: patent publication US8257755B2, “Metabolic syndrome-improving agent and medicine, supplement, functional food and food additive containing the same” (ARKRAY, Inc., priority 2005, dated 2012).
